Article PMC5613693, “Interactions of Desmethoxyyangonin, a Secondary Metabolite from Renealmia alpinia, with Human Monoamine Oxidase-A and Oxidase-B” (Evidence-based Complementary and Alternative Medicine : eCAM, 2017)
Where two headings read alike, the source gives them in different places. Blank lines part the entries; values can stand above or below the compound they belong to.

What was measured:
Type in all cases: biochemical
[1] = target: T1, recombinant human MAO-A (Homo sapiens, UniProt P21397); experiment: Fluorometric kynuramine deamination assay, MAO-A inhibition (IC50)
T1 construct: purchased BD Biosciences (Bedford, MA, USA); host or cells: baculovirus (Autographa californica) infected insect cells (BTI-TN-5B1-4)
T1 sequence (P21397 1-527): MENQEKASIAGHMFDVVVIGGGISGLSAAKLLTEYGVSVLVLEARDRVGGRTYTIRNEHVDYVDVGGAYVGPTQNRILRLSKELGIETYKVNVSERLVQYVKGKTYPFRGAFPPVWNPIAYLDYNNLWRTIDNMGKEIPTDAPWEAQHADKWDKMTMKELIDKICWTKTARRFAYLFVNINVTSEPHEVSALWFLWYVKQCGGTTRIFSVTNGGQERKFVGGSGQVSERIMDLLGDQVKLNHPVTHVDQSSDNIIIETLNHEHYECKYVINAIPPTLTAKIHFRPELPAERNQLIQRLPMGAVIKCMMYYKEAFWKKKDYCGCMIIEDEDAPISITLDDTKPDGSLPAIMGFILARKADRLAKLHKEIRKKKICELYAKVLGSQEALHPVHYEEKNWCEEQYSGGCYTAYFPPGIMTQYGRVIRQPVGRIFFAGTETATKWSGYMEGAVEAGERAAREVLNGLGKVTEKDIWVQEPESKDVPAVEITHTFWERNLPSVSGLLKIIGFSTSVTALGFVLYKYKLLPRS
Description: (§1) Pure recombinant human monoamine oxidases (MAO-A and MAO-B) enzymes overexpressed in baculovirus (Autographa californica) infected insect cells (BTI-TN-5B1-4) were purchased from BD Biosciences, (Bedford, MA, USA).
(§2) Stock solutions of the test compounds/extracts were prepared in DMSO and diluted further in 0.1 M potassium phosphate buffer (pH 7.4) to obtain the desired concentrations. MAO-A and MAO-B activities were determined by fluorometric kynuramine deamination assay set up in 384-well solid white flat-bottom plates. MAO-A and MAO-B inhibition activities (IC50 values) were determined using fixed concentration of the substrate kynuramine and varying concentrations of the test compounds or extracts. The enzyme reactions were carried out in 0.1 M potassium phosphate buffer (pH-7.4). […] The reaction mixtures with buffer/substrate/inhibitor were preincubated for 10 minutes at 37°C, followed by addition of MAO-A and MAO-B to initiate the reaction. The solid white microplates were incubated for 20 minutes at 37°C and the enzymatic reaction was stopped by addition of 28 µL of 2 N NaOH to each well. The deaminated product of kynuramine, which spontaneously cyclizes to 4-hydroxyquinoline, was measured fluorometrically at 320 nm excitation and 380 nm emission wavelengths with a plate reader (SpectraMax M5, Molecular Devices, Sunnyvale, CA, USA). The IC50 values were computed by XL-Fit® from the dose-response inhibition curves.

[2] = target: T2, recombinant human MAO-B (Homo sapiens, UniProt P27338); experiment: Fluorometric kynuramine deamination assay, MAO-B inhibition (IC50); conditions: for IC50: kynuramine 50 μM, mean ± SD of triplicate, read-out: Monoamine oxidase-B IC50; for Index MAO-A/B: ratio of IC50 MAO-A / IC50 MAO-B
T2 construct: purchased BD Biosciences (Bedford, MA, USA); host or cells: baculovirus (Autographa californica) infected insect cells (BTI-TN-5B1-4)
T2 sequence (P27338 1-520): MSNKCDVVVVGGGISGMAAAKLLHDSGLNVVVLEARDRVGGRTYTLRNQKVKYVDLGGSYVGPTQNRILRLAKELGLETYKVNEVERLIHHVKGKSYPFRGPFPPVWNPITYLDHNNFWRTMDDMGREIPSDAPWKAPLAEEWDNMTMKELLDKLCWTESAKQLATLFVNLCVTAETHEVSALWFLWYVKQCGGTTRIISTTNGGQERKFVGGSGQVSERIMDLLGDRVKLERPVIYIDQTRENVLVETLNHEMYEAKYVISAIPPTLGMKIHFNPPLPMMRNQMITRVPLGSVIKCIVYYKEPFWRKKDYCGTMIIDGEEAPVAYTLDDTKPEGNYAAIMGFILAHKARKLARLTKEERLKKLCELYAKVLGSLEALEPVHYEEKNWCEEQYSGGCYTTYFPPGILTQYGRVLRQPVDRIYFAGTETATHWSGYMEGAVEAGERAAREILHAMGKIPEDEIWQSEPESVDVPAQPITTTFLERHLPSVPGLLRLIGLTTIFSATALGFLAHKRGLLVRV
Description: as §1, §2

[3] = target: T1, recombinant human MAO-A; experiment: Enzyme kinetics and mechanism of inhibition of MAO-A; conditions: Lineweaver-Burk / dialysis
Description: (§3) Results are presented as double reciprocal Lineweaver-Burk plots. The kinetic data, namely, KM, Vmax, and Ki values, were calculated by SigmaPlot 12.3 with enzyme-kinetics module using Michaelis-Menten equation. The results were also analyzed for the type of inhibition.
(§4) To comprehend the type of inhibition, we examined 6 against both MAO-A and MAO-B at varying concentrations of kynuramine, a nonselective substrate. Desmethoxyyangonin 6 was tested at two concentrations: one above and the other below the IC50 value. For each experiment, three sets of assays were done at variable concentrations of the substrate: two concentrations of the inhibitor/compound and one control without inhibitors. The results are presented as double reciprocal Lineweaver-Burk plots and the kinetic data, namely, KM, Vmax, and Ki values, were computed by SigmaPlot 12.3 with enzyme-kinetics module using Michaelis-Menten equation (Table 2).

[4] = target: T2, recombinant human MAO-B; experiment: Enzyme kinetics and mechanism of inhibition of MAO-B; conditions: for Type of Inhibition, Monoamine oxidase-B: Lineweaver-Burk / dialysis; for Selectivity / higher affinity for MAO-B than MAO-A (by Ki): from Ki values
Description: as §3, §4

[5] = target: T1, recombinant human MAO-A; experiment: Equilibrium dialysis assay of enzyme-inhibitor complex, MAO-A
Description: (§5) Binding and inhibition of MAO-A and MAO-B with desmethoxyyangonin 6 were further examined by incubating the enzyme with high concentrations of the inhibitor followed by extensive dialysis of the enzyme-inhibitor complex and recovery of enzyme activities. MAO-A (0.05 mg/mL protein) was incubated with desmethoxyyangonin 6 (20 μM and 100.0 μM) and MAO-B (0.05 mg/mL protein) was incubated with desmethoxyyangonin 6 (1.50 μM and 20.0 μM) in an enzyme incubation mixture of 1 mL containing 100 mM potassium phosphate buffer (pH 7.4). Formation of enzyme-inhibitor complex was allowed by incubation of the reaction mixtures for 20 min at 37°C. The enzyme-inhibitor mixtures after incubation were chilled, transferred to the dialysis bags, and dialyzed against 25 mM potassium phosphate buffer (pH 7.4) for 14–16 hours at 4°C (changing the dialysis buffer three times). The enzyme catalytic activities were measured before and after dialysis.
(§6) The control enzymes without inhibitor were also run concurrently. […] The binding characteristics of desmethoxyyangonin 6 with MAO-A and MAO-B were examined by equilibrium dialysis to measure dissociation of the enzyme-inhibitor complex (Figure 6). MAO-A and MAO-B were incubated with high concentration of desmethoxyyangonin 6 for 20 minutes at 37°C to allow binding of inhibitor with the enzyme and formation of enzyme-inhibitor complex. The mixtures of enzyme-inhibitor complex were dialyzed overnight at 4°C against 25 mM KHPO4 (pH-7.4) buffer. The enzyme activities were examined before and after dialysis. Through overnight dialysis, the recombinant human MAO-A enzyme lost about 10–15% of activity. Incubation of MAO-A with 20.0 and 100 μM concentrations of desmethoxyyangonin 6 inhibited more than 65% of the enzyme activity (Figure 6). After the dialysis, more than 90% catalytic activity of MAO-A was recovered from enzyme-desmethoxyyangonin 6 incubation mixtures. Similarly, MAO-B lost about 10–15% of the enzyme activity during overnight dialysis.

[6] = target: T2, recombinant human MAO-B; experiment: Equilibrium dialysis assay of enzyme-inhibitor complex, MAO-B
Description: as §5, §6

[7] = target: T1, recombinant human MAO-A; experiment: Time-dependent enzyme inhibition assay, MAO-A; conditions: 7.50 μM, preincubation 0-15 min
Description: (§7) MAO-A and MAO-B enzymes were preincubated for different time periods (0–15 min) with the inhibitor. […] Controls without inhibitors were also run simultaneously. The enzyme activities were determined as described above.
as §6

[8] = target: T2, recombinant human MAO-B; experiment: Time-dependent enzyme inhibition assay, MAO-B; conditions: 0.40 μM, preincubation 0-15 min
Description: as §7, §6

[9] = kynuramine 80 μM, mean ± SD of triplicate, read-out: Monoamine oxidase-A IC50
[10] = equilibrium dialysis dissociation

SMILES: COc1cc(/C=C/c2ccccc2)oc(=O)c1 [Desmethoxyyangonin, 6, desmethoxyyangonin]
MAO inhibition in words ([1]; MAO-A and MAO-B inhibition assays): potent MAO inhibition
IC50 [1, 9]: 1.85 ± 0.086 µM
Preferential inhibition of MAO-B than MAO-A (by IC50) ([2]; from IC50 values): 15 fold
IC50 [2]: 0.123 µM
Type of Inhibition, Monoamine oxidase-A [3]: Mixed/reversible
Type of Inhibition, Monoamine oxidase-A ([3]; listed as desmethoxyyangonin 6): mixed inhibitor
Type of Inhibition, Monoamine oxidase-B [4]: Competitive/reversible
Type of Inhibition, Monoamine oxidase-B ([4]; listed as 6): competitive
Selectivity / higher affinity for MAO-B than MAO-A (by Ki) ([4]; listed as Compound 6): about 30 fold
Selectivity / higher affinity for MAO-B than MAO-A (by Ki) ([4]; listed as desmethoxyyangonin 6): 29 fold
Inhibition of MAO-A enzyme activity before dialysis ([5]; 20.0 and 100 μM, 20 min at 37°C): more than 65%
Catalytic activity of MAO-A recovered after dialysis ([5]; 20.0 and 100 μM, overnight dialysis at 4°C): more than 90%
Reversibility of MAO-A inhibition [5, 10]: reversible binding
Inhibition of MAO-B enzyme activity before dialysis ([6]; 1.50 and 20.0 μM, 20 min at 37°C): more than 90%
Recovery of MAO-B enzyme activity after dialysis ([6]; 1.50 and 20.0 μM, overnight dialysis at 4°C): fully recovered
Reversibility of MAO-B inhibition [6, 10]: reversible binding
Time dependence of MAO-A inhibition [7]: not time-dependent
Time dependence of MAO-B inhibition [8]: not time-dependent

SMILES: COc1cc(O)c2c(c1)O[C@H](c1ccc(O)cc1)CC2=O [Sakuranetin, 3, naringenin 7-methyl ether]
IC50 [1]: 45.5 ± 5.71 µM
IC50 [2]: 36.5 ± 6.63 µM
Index MAO-A/B [2]: 1.246

SMILES: COc1ccc([C@@H]2CC(=O)c3c(O)cc(OC)cc3O2)cc1 [4′-Methyl ether sakuranetin, 2, naringenin 7,4′-dimethyl ether]
IC50 [1, 9]: 31.4 ± 4.58 µM
IC50 [2]: > 100 µM

More lines, now with the values ahead:

IC50 [1, 9]: > 100 µM
IC50 [2]: 35.38 ± 0.121 µM
SMILES: O[C@H](CCc1ccccc1)C[C@@H](O)CCc1ccccc1 [Yashabushidiol A, 5, 3,5-heptanediol-1,7-diphenyl]

IC50 [1, 9]: 23.9 ± 1.35 µM
IC50 [2]: 45.5 ± 4.31 µM
Index MAO-A/B [2]: 0.524
SMILES: COc1cc(O)c2c(c1)O[C@H](c1ccccc1)CC2=O [Pinostrobin, 1, pinostrobin]

IC50 [1, 9]: 6.33 ± 0.206 µM
IC50 [2]: 10 ± 3.24 µM
SMILES: COc1cc(O)c(C(=O)/C=C/c2ccccc2)c(O)c1 [Pinostrobin chalcone, 4, 2′,6′-dihydroxy-4′-methoxychalcone]
